Test results taken from patent publication US4314028A, “Fermentation process for producing tallysomycin compounds” (priority 1980, dated 1982).

Tests used:
[1] = system: lysogenic bacterium E. coli W1709 (λ); assay: Prophage induction of lysogenic bacterium (ILB activity); type: cell-based; settings: t/c ratio of plaque counts greater than 3.0
Protocol: The activity of prophage induction of lysogenic bacterium E. coli W1709 (λ) was determined according to the method disclosed by Lein et al. in Nature 196: 783-784 (1962). The plaque count was made on the agar plate containing test compound (t) and control plate (c). A t/c ratio of the plaque counts of greater than 3.0 was defined to be a significant level and lysogenic induction activity (ILB activity) was expressed by the minimum inducible concentration of the test compound.

Melanotic melanoma B16 = assay: Antitumor activity in mice, melanotic melanoma B16; type: in vivo, BDF1 mice; settings: copper-chelated form unless otherwise stated; for Antitumor activity B16 (ID50): ip, once daily 9 days, 50% inhibition of tumor growth, day 16, 23040 min; for Antitumor therapeutic index B16: single dose LD50/ID50
Text: (§1) The antitumor activity of the tallysomycin derivatives was examined in four experimental tumor systems in mice. Lymphocytic leukemia P388 and Lewis lung carcinoma were implanted intraperitoneally into BDF1 mice of either sex at an inoculum size of 3×10^5 and 5×10^5 cells per mouse, respectively. Sarcoma 180 ascites tumor was inoculated intraperitoneally into male dd-strain mice with […] per mouse. Melanotic melanoma B16 was implanted subcutaneously into BDF1 mice with 5×10^5 cells per mouse. Twenty-four hours after the implantation of tumor cells, graded doses of test compounds were administered to mice intraperitoneally in an injection volume of 0.2 ml. per 10 grams of body weight. Test compounds were given once daily for 9 days (qd 1→9 schedule) except for the mice inoculated with Lewis lung carcinoma which were treated for 11 days (qd 1→11). Death or survival of the treated and non-treated (control) animals was recorded daily during the observation period of 45 days after the implantation of tumor cells, and the median survival time was calculated for each of the test (T) and control (C) groups. […] The actual dose giving a T/C of 125% was estimated by linear regression analysis and defined as the effective dose 125 or ED125. The effective dose 150 (ED150) was employed for the evaluation of antitumor effect against Sarcoma 180. In the B16 melanoma experiment the tumor size was measured on day 16 after tumor inoculation, and the dose giving 50% inhibition of tumor growth (ID50) was calculated from regression lines.
(§2) The antitumor therapeutic index was calculated for each derivative from the ratio of toxicity and antitumor activity.

[2] = system: Lymphocytic leukemia P388; assay: animal or person; type: in vivo, BDF1 mice; settings: copper-chelated form unless otherwise stated; for Antitumor activity P388 (ED125): ip, once daily 9 days, dose giving T/C survival of 125%; for Antitumor therapeutic index P388: single dose LD50/ED125
Text: as §1, §2

[3] = Acute toxicity, single dose LD50; type: in vivo, dd mice; settings: ip, 30 days observation, copper-chelated form unless otherwise stated
Protocol: Graded doses of test compounds were administered intraperitoneally to groups of dd mice. The injection was given one time only or once daily for 9 consecutive days. Death or survival of the animals was recorded for 30 days after the last dose of test compound to calculate the single or multiple median lethal dose (LD50).

Sarcina lutea PCI1001 = assay: MIC, two-fold agar dilution method; type: cell-based; settings: nutrient agar
Protocol: (§3) The minimum inhibitory concentrations (MIC) of the semibiosynthetic tallysomycin derivatives of the present invention were determined against fungi and gram-positive, gram-negative and acid-fast bacteria by the two-fold agar dilution method. Nutrient agar was used for bacteria and Sabouraud agar for fungi. The results are shown in the table below comparatively with tallysomycin A and B.

[4] = system: Candida albicans IAM 4888; assay: MIC, two-fold agar dilution method; type: cell-based; settings: Sabouraud agar
Protocol: as §3

[5] = system: Aspergillus fumigatus IAM 2593; assay: MIC, two-fold agar dilution method; type: cell-based; settings: Sabouraud agar
Protocol: as §3

[6] = system: Staphylococcus aureus Smith; assay: MIC, two-fold agar dilution method; type: cell-based; settings: nutrient agar
Protocol: as §3

Proteus mirabilis A9554 = assay: MIC, two-fold agar dilution method; type: cell-based; settings: nutrient agar
Protocol: as §3

[7] = system: Bacillus subtilis PCI 219; assay: MIC, two-fold agar dilution method; type: cell-based; settings: nutrient agar
Protocol: as §3

Mycobacterium 607 = assay: MIC, two-fold agar dilution method; type: cell-based; settings: nutrient agar
Protocol: as §3

Escherichia coli NIHJ = assay: MIC, two-fold agar dilution method; type: cell-based; settings: nutrient agar
Protocol: as §3

Sarcoma 180 = assay: animal or person; type: in vivo, dd-strain mice; settings: copper-chelated form unless otherwise stated; for Antitumor activity S180 (ED150): ip, once daily 9 days, effective dose 150, survival; for Antitumor therapeutic index S180: single dose LD50/ED150
Text: as §1, §2

[8] = system: Mycobacterium smegmatis strain M6-3; assay: Relative antibacterial potency, paper-disc agar diffusion method; type: cell-based; settings: relative to tallysomycin A standard=1000 mcg/mg
Protocol: The relative antibacterial potencies (tallysomycin A standard=1000 mcg/mg) of the tallysomycin derivatives were determined by the paper-disc agar diffusion method using Mycobacterium smegmatis strain M6-3 as the assay organism.

Structure (SMILES)	ILB activity (minimum inducible concentration) [1] [µg/mL]	Antitumor activity B16 (ID50) (Melanotic melanoma B16) [mg/kg/day]	Antitumor therapeutic index B16 (Melanotic melanoma B16)	Antitumor activity P388 (ED125) [2] [mg/kg/day]	Antitumor therapeutic index P388 [2]	LD50 single dose [3] [mg/kg/day]	minimum inhibitory concentration (MIC) (Sarcina lutea PCI1001)	minimum inhibitory concentration (MIC) [4]	minimum inhibitory concentration (MIC) [5]	minimum inhibitory concentration (MIC) [6]	minimum inhibitory concentration (MIC) (Proteus mirabilis A9554)	minimum inhibitory concentration (MIC) [7]	minimum inhibitory concentration (MIC) (Mycobacterium 607)	minimum inhibitory concentration (MIC) (Escherichia coli NIHJ)	Antitumor activity S180 (ED150) (Sarcoma 180) [mg/kg/day]	Antitumor therapeutic index S180 (Sarcoma 180)	Antibacterial potency [8]
Cc1c(N)nc(C(CC(N)=O)NCC(N)C(N)=O)nc1C(=O)NC(C(=O)NC(C)C(O)CC(=O)NC(C(=O)NC(OC1OC(C)C(N)C(O)C1O)C(O)c1nc(-c2nc(C(=O)NCCCC(N)CC(=O)NCCCN)cs2)cs1)C(C)O)C(OC1OC(CO)C(O)C(O)C1OC1OC(CO)C(O)C(OC(N)=O)C1O)c1c[nH]cn1 (stereo not shown) [Tallysomycin S1a]	0.16	0.84	30	1.2	21	25	0.1	3.1	0.8	0.4	0.4	< 0.003	0.012	0.1	0.07	357	1,075 μ/mg
Cc1c(N)nc(C(CC(N)=O)NCC(N)C(N)=O)nc1C(=O)NC(C(=O)NC(C)C(O)CC(=O)NC(C(=O)NC(OC1OC(C)C(N)C(O)C1O)C(O)c1nc(-c2nc(C(=O)NCCCN(C)C)cs2)cs1)C(C)O)C(OC1OC(CO)C(O)C(O)C1OC1OC(CO)C(O)C(OC(N)=O)C1O)c1c[nH]cn1 (stereo not shown) [Tallysomycin S7b]	0.08	0.16	188	2.1	14	30	12.5	> 50	0.4	6.3	6.3	0.1	3.1	0.4	0.14	214	380 μ/mg
Cc1c(N)nc(C(CC(N)=O)NCC(N)C(N)=O)nc1C(=O)NC(C(=O)NC(C)C(O)CC(=O)NC(C(=O)NC(OC1OC(C)C(N)C(O)C1O)C(O)c1nc(-c2nc(C(=O)NCCCC(N)CC(=O)NCCCCN)cs2)cs1)C(C)O)C(OC1OC(CO)C(O)C(O)C1OC1OC(CO)C(O)C(OC(N)=O)C1O)c1c[nH]cn1 (stereo not shown) [Tallysomycin S10a]	0.16	0.39	69	0.28	96	27	0.4	3.1	1.6	1.6	0.8	0.04	0.2	0.4	0.08	338	1,450 μ/mg
Cc1c(N)nc(C(CC(N)=O)NCC(N)C(N)=O)nc1C(=O)NC(C(=O)NC(C)C(O)CC(=O)NC(C(=O)NC(OC1OC(C)C(N)C(O)C1O)C(O)c1nc(-c2nc(C(=O)NCCCN3CCOCC3)cs2)cs1)C(C)O)C(OC1OC(CO)C(O)C(O)C1OC1OC(CO)C(O)C(OC(N)=O)C1O)c1c[nH]cn1 (stereo not shown) [Tallysomycin S12b]	0.31	1.30	> 38	1.30	> 38	> 50	12.5	> 100	25	12.5	50	0.4	0.2	1.6	0.06	> 833	390 μ/mg
Cc1c(N)nc(C(CC(N)=O)NCC(N)C(N)=O)nc1C(=O)NC(C(=O)NC(C)C(O)CC(=O)NC(C(=O)NC(OC1OC(C)C(N)C(O)C1O)C(O)c1nc(-c2nc(C(=O)NCCCN3CCCCC3C)cs2)cs1)C(C)O)C(OC1OC(CO)C(O)C(O)C1OC1OC(CO)C(O)C(OC(N)=O)C1O)c1c[nH]cn1 (stereo not shown) [Tallysomycin S13b]	0.08	0.23	152	0.70	50	35	6.3	> 100	12.5	6.3	12.5	0.8	0.2	0.4	0.33	106	1,090 μ/mg
